{"source": "patent US6642226B2", "about": "“Substituted phenyl-piperidine methanone compounds” (Hoffman-La Roche Inc., priority 2001, dated 2003)", "molecular_target": "T1, human NK1 receptor (Homo sapiens, UniProt P25103)", "T1 construct": "expressed in transfected cells; host or cells: CHO cells, Semliki virus expression system; membrane suspension", "T1 sequence (P25103 whole entry)": "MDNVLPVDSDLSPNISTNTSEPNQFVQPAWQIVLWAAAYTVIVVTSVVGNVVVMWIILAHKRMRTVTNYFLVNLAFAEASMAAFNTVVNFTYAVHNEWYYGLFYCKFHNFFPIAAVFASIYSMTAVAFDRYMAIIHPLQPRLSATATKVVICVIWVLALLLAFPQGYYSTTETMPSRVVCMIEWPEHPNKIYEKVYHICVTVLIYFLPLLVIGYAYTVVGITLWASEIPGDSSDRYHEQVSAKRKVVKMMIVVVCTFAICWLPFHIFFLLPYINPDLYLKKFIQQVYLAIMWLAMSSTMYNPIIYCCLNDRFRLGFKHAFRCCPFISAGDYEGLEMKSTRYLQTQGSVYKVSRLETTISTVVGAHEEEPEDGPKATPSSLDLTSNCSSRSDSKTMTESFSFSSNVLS", "assay": "NK1 receptor binding, [3H]substance P displacement", "conditions": "for relative activity of enantiomer in the test for NK-1 binding: enantiomer fraction from Chiralpak AD separation of the racemate; for Ki: human NK1 receptors in CHO cells, [3H]substance P 0.6 nM, read-out: pKi (affinity to the NK-1 receptor) (converted)", "description": "The affinity of test compounds for the NK1 receptor was evaluated at human NK1 receptors in CHO cells infected with the human NK1 receptor (using the Semliki virus expression system) and radiolabelled with [^3H]substance P (final concentration 0.6 nM). Binding assays were performed in HEPES buffer (50 mM, pH 7.4) containing BSA (0.04%) leupeptin (8 μg/ml), MnCl2 (3 mM) and phosphoramidon (2 μM). Binding assays consisted of 250 μl of membrane suspension (1.25×10^5 cells/assay tube), […] of buffer of displacing agent and 125 μl of [^3H]substance P. Displacement curves were determined with at least seven concentrations of the compound. The assay tubes were incubated for 60 min at room temperature after which time the tube contents were rapidly filtered under vacuum through GF/C filters presoaked for 60 min with PEI (0.3%) with 2×2 ml washes of HEPES buffer (50 mM, pH 7.4). The radioactivity retained on the filters was measured by scintillation counting. All assays were performed in triplicate in at least 2 separate experiments.", "data": [{"smiles": "CN1CCN(C2CCN(C(=O)c3cc(Cl)cc(Cl)c3)CC2c2ccccc2)CC1", "note": "(single isomer, unassigned; (+)) [Example 127, (+)-(3,5-Dichloro-phenyl)-[4-(4-methyl-piperazin-1-yl)-3-phenyl-piperidin-1-yl]-methanone]", "values": [{"measurement": "relative activity of enantiomer in the test for NK-1 binding", "result": "more active enantiomer"}]}, {"smiles": "O=C(c1cc(C(F)(F)F)cc(C(F)(F)F)c1)N1CCC(N2CCC(OCC3CC3)CC2)C(c2ccc(Cl)cc2)C1", "note": "(racemic) [Example 66, Rac-cis-(3,5-Bis-trifluoromethyl-phenyl)-[3′-(4-chloro-phenyl)-4-cyclopropylmethoxy-[1,4′]bipiperidinyl-1′-yl]-methanone]", "values": [{"measurement": "Ki", "result": 2.75, "unit": "nM"}]}, {"smiles": "O=C(c1cc(C(F)(F)F)cc(C(F)(F)F)c1)N1CC[C@@H](N2CCN(C(=O)C(F)(F)F)CC2)[C@@H](c2ccc(Cl)cc2)C1", "note": "(single isomer, unassigned) [Example 108, (−)-1-{4-[1-(3,5-Bis-trifluoromethyl-benzoyl)-3-(4-chloro-phenyl)-piperidin-4-yl]-piperazin-1-yl}-2,2,2-trifluoro-ethanone]", "values": [{"measurement": "relative activity of enantiomer in the test for NK-1 binding", "result": "more active enantiomer"}, {"measurement": "Ki", "result": 1.29, "unit": "nM"}]}, {"smiles": "O=C(c1cc(C(F)(F)F)cc(C(F)(F)F)c1)N1CCC(N2CCN(CC3CC3)CC2)C(c2ccc(Cl)cc2)C1", "note": "(single isomer, unassigned; (-)) [Example 113, (−)-(3,5-Bis-trifluoromethyl-phenyl)-[3-(4-chloro-phenyl)-4-(4-cyclopropylmethyl-piperazin-1-yl)-piperidin-1-yl]-methanone]", "values": [{"measurement": "Ki", "result": 0.363, "unit": "nM"}]}, {"smiles": "O=C(c1cc(C(F)(F)F)cc(C(F)(F)F)c1)N1CC[C@H](N2CCN(C(=O)C(F)(F)F)CC2)[C@H](c2ccc(Cl)cc2)C1", "note": "(racemic) [Example 106, Rac-cis-1-{4-[1-(3,5-Bis-trifluoromethyl-benzoyl)-3-(4-chloro-phenyl)-piperidin-4-yl]-piperazin-1-yl}-2,2,2-trifluoro-ethanone]", "values": [{"measurement": "Ki", "result": 3.16, "unit": "nM"}]}, {"smiles": "O=C(c1cc(C(F)(F)F)cc(C(F)(F)F)c1)N1CCC(N2CCC(N3CCOCC3)CC2)C(c2ccc(Cl)cc2)C1", "note": "(racemic) [Example 109, Rac-cis-(3,5-Bis-trifluoromethyl-phenyl)-[3′-(4-chloro-phenyl)-4-morpholin-4-yl-[1,4′]bipiperidinyl-1′-yl]-methanone]", "values": [{"measurement": "Ki", "result": 1.62, "unit": "nM"}]}, {"smiles": "CN1CCN([C@@H]2CCN(C(=O)c3cc(C(F)(F)F)cc(C(F)(F)F)c3)C[C@@H]2c2ccccc2)CC1", "note": "(single isomer, unassigned) [Example 92, (−)-(3,5-Bis-trifluoromethyl-phenyl)-[3-phenyl-4-(4-methyl-piperazin-1-yl)-piperidin-1-yl]-methanone]", "values": [{"measurement": "relative activity of enantiomer in the test for NK-1 binding", "result": "more active enantiomer"}, {"measurement": "Ki", "result": 2.69, "unit": "nM"}]}, {"smiles": "CN(C)C1CCN(C2CCN(C(=O)c3cc(C(F)(F)F)cc(C(F)(F)F)c3)CC2c2ccc(Cl)cc2)CC1", "note": "(racemic) [Example 107, Rac-cis-(3,5-bis-trifluoromethyl-phenyl)-[3′-(4-chloro-phenyl)-4-dimethylamino-[1,4′]bipiperidinyl-1′-yl]-methanone]", "values": [{"measurement": "Ki", "result": 0.631, "unit": "nM"}]}, {"smiles": "CC(C)(C)OC(=O)N1CCN(C2CCN(C(=O)c3cc(C(F)(F)F)cc(C(F)(F)F)c3)CC2c2ccccc2)CC1", "note": "(single isomer, unassigned; (-)) [Example 101, (−)-4-[1-(3,5-Bis-trifluoromethyl-benzoyl)-3-phenyl-piperidin-4-yl]-piperazine-1-carboxylic Acid Tert-Butyl Ester]", "values": [{"measurement": "relative activity of enantiomer in the test for NK-1 binding", "result": "more active enantiomer"}]}, {"smiles": "CN1CCN([C@@H]2CCN(C(=O)c3cc(C(F)(F)F)cc(C(F)(F)F)c3)C[C@@H]2c2ccc(F)cc2)CC1", "note": "(single isomer, unassigned) [Example 90, (−)-(3,5-Bis-trifluoromethyl-phenyl)-[3-(4-fluoro-phenyl)-4-(4-methyl-piperazin-1-yl)-piperidin-1-yl]-methanone]", "values": [{"measurement": "relative activity of enantiomer in the test for NK-1 binding", "result": "more active enantiomer"}, {"measurement": "Ki", "result": 2.45, "unit": "nM"}]}, {"smiles": "O=C(c1cc(C(F)(F)F)cc(C(F)(F)F)c1)N1CC[C@@H](N2CCOCC2)[C@@H](c2ccc(Cl)cc2)C1", "note": "(single isomer, unassigned) [Example 70, (−)-(3,5-Bis-trifluoromethyl-phenyl)-[3-(4-chloro-phenyl)-4-morpholin-4-yl-piperidin-1-yl]-methanone]", "values": [{"measurement": "relative activity of enantiomer in the test for NK-1 binding", "result": "more active enantiomer"}, {"measurement": "Ki", "result": 2.57, "unit": "nM"}]}, {"smiles": "NC1CCN(C2CCN(C(=O)c3cc(C(F)(F)F)cc(C(F)(F)F)c3)CC2c2ccc(F)cc2)C1", "note": "(mixture of isomers) [Example 118, (3RS,3′RS,4SR)- and (3RS,3′SR,4SR)-[4-(3-Amino-pyrrolidin-1-yl)-3-(4-fluoro-phenyl)-piperidin-1-yl]-(3,5-bis-trifluoromethyl-phenyl)-methanone]", "values": [{"measurement": "Ki", "result": 1.78, "unit": "nM"}]}, {"smiles": "Cc1ccc(C2CN(C(=O)c3cc(C(F)(F)F)cc(C(F)(F)F)c3)CCC2N2CCN(C3CC3)CC2)cc1", "note": "(single isomer, unassigned; (-)) [Example 110, (−)-(3,5-Bis-trifluoromethyl-phenyl)-[4-(4-cyclopropyl-piperazin-1-yl)-3-p-tolyl-piperidin-1-yl]-methanone]", "values": [{"measurement": "Ki", "result": 1.05, "unit": "nM"}]}, {"smiles": "Cc1ccc(C2CN(C(=O)c3cc(C(F)(F)F)cc(C(F)(F)F)c3)CCC2N2CCN(C(=O)C3CC3)CC2)cc1", "note": "(single isomer, unassigned; (-)) [Example 103, (−)-(3,5-Bis-trifluoromethyl-phenyl)-[4-(4-cyclopropanecarbonyl-piperazin-1-yl)-3-p-tolyl-piperidin-1-yl]-methanone]", "values": [{"measurement": "Ki", "result": 2.14, "unit": "nM"}]}, {"smiles": "O=C(c1cc(C(F)(F)F)cc(C(F)(F)F)c1)N1CC[C@@H](N2CCN(C(=O)C3CC3)CC2)[C@@H](c2ccccc2)C1", "note": "(single isomer, unassigned) [Example 65, (+)-(3,5-Bis-trifluoromethyl-phenyl)-[4-(4-cyclopropanecarbonyl-piperazin-1-yl)-3-phenyl-piperidin-1-yl]-methanone]", "values": [{"measurement": "relative activity of enantiomer in the test for NK-1 binding", "result": "more active enantiomer"}, {"measurement": "Ki", "result": 1.41, "unit": "nM"}]}, {"smiles": "Cc1ccc(C2CN(C(=O)c3cc(C(F)(F)F)cc(C(F)(F)F)c3)CCC2N2CCN(C(=O)C(F)(F)F)CC2)cc1", "note": "(single isomer, unassigned; (-)) [Example 100, (−)-{4-[1-(3,5-Bis-trifluoromethyl-benzoyl)-3-p-tolyl-piperidin-4-yl]-piperazin-1-yl}-2,2,2-trifluoro-ethanone]", "values": [{"measurement": "relative activity of enantiomer in the test for NK-1 binding", "result": "more active enantiomer"}]}, {"smiles": "O=C(c1cc(C(F)(F)F)cc(C(F)(F)F)c1)N1CCC(N2CCC(NC3CC3)CC2)C(c2ccc(Cl)cc2)C1", "note": "(racemic) [Example 112, Rac-cis-(3,5-Bis-trifluoromethyl-phenyl)-[3′-(4-chloro-phenyl)-4-cydopropylamino-[1,4′]bipiperidinyl-1′-yl]-methanone]", "values": [{"measurement": "Ki", "result": 0.794, "unit": "nM"}]}, {"smiles": "O=C(c1cc(C(F)(F)F)cc(C(F)(F)F)c1)N1CCC(N2CCN(C(=O)C3CC3)CC2)C(c2ccc(F)cc2)C1", "note": "(single isomer, unassigned; (+)) [Example 85, (+)-(3,5-Bis-trifluoromethyl-phenyl)-[4-(4-cyclopropanecarbonyl-piperazin-1-yl)-3-(4-fluoro-phenyl)-piperidin-1-yl]-methanone]", "values": [{"measurement": "relative activity of enantiomer in the test for NK-1 binding", "result": "more active enantiomer"}]}]}
